Results from US9980973B2, “Bicyclic heterocycle compounds and their uses in therapy” (ASTEX THERAPEUTICS LIMITED, priority 2012, dated 2018).
pEC50, pIC50: −log10 of the molar value. Structures can show the parent of a compound that is named as a salt. Where two headings read alike, the source gives them in different places.

Columns and labels:
[1] = system: EVSA-T (human breast carcinoma); experiment: Anti-proliferative activity, Alamar Blue assay, EVSA-T; format: cell-based
[2] = target: T1, BIR3 domain of human XIAP (Homo sapiens, UniProt P98170); experiment: XIAP in vitro competitive displacement binding assay (fluorescence polarization); details: for Xiap IC50 or PI μM (PI) / inhibition at 0.04 µM: PI at 0.04 μM; for IC50: plain number = IC50, average where more than one data point, read-out: Xiap IC50 or PI μM (IC50); for inhibition at 0.04 µM: 1 h, read-out: Xiap IC50 or PI μM (PI); for pIC50: or at least 50% inhibition of the activity at 0.1 μM, read-out: IC50 in the XIAP assay
T1 construct: BIR3 domain of human XIAP (residues 252-350) fused to a His-tag; His-tag (cleaved yes); made in house; host or cells: Escherichia coli

[3] = target: T2, BIR3 domain of human cIAP-1 (Homo sapiens, UniProt Q13490); experiment: cIAP-1 in vitro competitive displacement binding assay (fluorescence polarization); details: PI at […]
T2 construct: human cIAP-1 (residues 267-363) fused to a GST-tag; GST-tag (cleaved yes); made in house; host or cells: Escherichia coli

[4] = EVSA-T cells, 72 hours, Alamar Blue, dihydrochloride, read-out: EVSA-T prolif
[5] = 60 min, dihydrochloride, 0.04 µM
[6] = EVSA-T cells, 72 hours, Alamar Blue, hydrochloride, read-out: EVSA-T prolif
[7] = Homo sapiens, EVSA-T, read-out: EC50 in EVSA-T cell line assays
[8] = EVSA-T cells, 72 hours, Alamar Blue, read-out: EVSA-T prolif
[9] = Homo sapiens, EVSA-T, 72 h, EVSA-T cells, 72 hours, Alamar Blue, read-out: EVSA-T prolif

T2 sequence (Q13490 267-363): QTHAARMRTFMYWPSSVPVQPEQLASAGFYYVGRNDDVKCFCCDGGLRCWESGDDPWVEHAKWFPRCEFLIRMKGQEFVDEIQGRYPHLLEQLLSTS
T1 sequence (P98170 252-350): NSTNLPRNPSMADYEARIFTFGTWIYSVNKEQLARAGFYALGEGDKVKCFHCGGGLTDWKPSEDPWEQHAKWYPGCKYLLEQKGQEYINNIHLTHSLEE

With `C[C@@H]1CN(CC(=O)N2CC(C)(C)c3ncc(C(O)c4cccc(F)c4)cc32)[C@@H](CN2[C@H](C)COC[C@H]2C)CN1` (single isomer, unassigned) [Example 106, 2-[(2R,5R)-2-{[(3R,5R)-3,5-Dimethylmorpholin-4-yl]methyl}-5-methylpiperazin-1-yl]-1-{6-[(R or S)-(3-fluorophenyl)-(hydroxy)methyl]-3,3-dimethyl-1H,2H,3H-pyrrolo[3,2-b]pyridin-1-yl}ethan-1-one dihydrochloride] the pEC50 [1, 4] was 8.37, the “Xiap IC50 or PI μM (PI)” value [2, 5] was 42%@0.04 and the “cIAP1 IC50 or PI μM (PI)” value ([3]; 180 min, dihydrochloride, […]) was 88%@0.012.

With `C[C@@H]1CN(CC(=O)N2CC(C)(C)c3ncc(Cc4ccc(F)cc4)cc32)[C@@H](CN2CCCCC2C(F)(F)F)CN1` (single isomer, unassigned) [Example 26, 1-{6-[(4-Fluorophenyl)methyl]-3,3-dimethyl-1H,2H,3H-pyrrolo[3,2-b]pyridin-1-yl}-2-[(2R,5R)-5-methyl-2-{[2-([R or S]trifluoromethyl)piperidin-1-yl]methyl}piperazin-1-yl]ethan-1-one hydrochloride] the pEC50 [1, 6] was 6.92, the IC50 [2] was 0.21 µM and the “cIAP1 IC50 or PI μM (PI)” value ([3]; 180 min, hydrochloride, […]) was 94%@0.012.

Work on `COCC1(C)COCCN1C[C@H]1CN[C@H](C)CN1CC(=O)N1CC(C)(C)c2ncc(Cc3ccc(F)cc3)cc21` (single isomer, unassigned) [Example 100, dihydrochloride] yielded a pEC50 [1, 4] of 9.04, a pEC50 [1, 7] greater than 6.00 and an inhibition at 0.04 µM [2] of 56%. The pIC50 [2] was greater than 7.00 and the “cIAP1 IC50 or PI μM (PI)” value ([3]; 180 min, dihydrochloride, […]) was 99%@0.012.

`C[C@@H]1CN(CC(=O)N2CC(C)(C)c3cnc(Cc4ccc(F)cc4)cc32)[C@@H](CN2CCOC[C@]2(C)CO)CN1.Cl.Cl` [Example 61, 1-{6-[(4-Fluorophenyl)methyl]-3,3-dimethyl-1H,2H,3H-pyrrolo[3,2-c]pyridin-1-yl}-2-[(2R,5R)-2-{[(3S)-3-(hydroxymethyl)-3-methylmorpholin-4-yl]methyl}-5-methylpiperazin-1-yl]ethan-1-one, dihydrochloride] was tested, and the pEC50 [1, 8] was 8.22, the “Xiap IC50 or PI μM (PI)” value [2] was 57%@0.04 and the “cIAP1 IC50 or PI μM (PI)” value [3] was 99%@0.012.

In the case of `C[C@@H]1CN(CC(=O)N2CC(C)(C)c3ncc(Cc4ccc(F)cc4)cc32)[C@@H](CN2CCOCC2C(F)(F)F)CN1` (single isomer, unassigned) [Example 27, 1-{6-[(4-Fluorophenyl)methyl]-3,3-dimethyl-1H,2H,3H-pyrrolo[3,2-b]pyridin-1-yl}-2-[(2R,5R)-5-methyl-2-{[3-([R or S]trifluoromethyl)morpholin-4-yl]methyl}piperazin-1-yl]ethan-1-one hydrochloride], the pEC50 [1, 6] was 7.82, the IC50 [2] was 0.13 µM and the “cIAP1 IC50 or PI μM (PI)” value ([3]; 180 min, hydrochloride, […]) was 90%@0.012.

For `C[C@@H]1CN(CC(=O)N2CC(C)(C)c3ncc(Cc4ccc(F)cc4)cc32)[C@@H](CN2CCN(c3ncccn3)C[C@H]2C)CN1` [Example 53, 1-{6-[(4-Fluorophenyl)methyl]-3,3-dimethyl-1H,2H,3H-pyrrolo[3,2-b]pyridin-1-yl}-2-[(2R,5R)-5-methyl-2-{[(2R)-2-methyl-4-(pyrimidin-2-yl)piperazin-1-yl]methyl}piperazin-1-yl]ethan-1-one, dihydrochloride], the pEC50 [1, 9] was 9.21, the pEC50 [1, 7] was greater than 6.00 and the inhibition at 0.04 µM [2] was 59%.

Work on `C[C@@H]1CN(CC(=O)N2CC(C)(C)c3ncc(Cc4ccc(F)cc4)cc32)[C@@H](CN2CCNC(=O)[C@H]2C)CN1` [Example 35, (3R)-4-{[(2R,5R)-1-(2-{6-[(4-Fluorophenyl)methyl]-3,3-dimethyl-1H,2H,3H-pyrrolo[3,2-b]pyridin-1-yl}-2-oxoethyl)-5-methylpiperazin-2-yl]methyl}-3-methylpiperazin-2-one] yielded a pEC50 [1, 9] of 8.72, a pEC50 [1, 7] greater than 6.00 and an inhibition at 0.04 µM [2] of 54%. It also gave a pIC50 [2] greater than 7.00.

Work on `C[C@@H]1CN(CC(=O)N2CC(C)(C)c3ncc(Cc4ccc(F)cc4)cc32)[C@@H](CN2C[C@@H](C)N[C@@H](C)C2)CN1` [Example 22, 2-[(2R,5R)-2-{[(3R,5S)-3,5-Dimethylpiperazin-1-yl]methyl}-5-methylpiperazin-1-yl]-1-{6-[(4-fluorophenyl)methyl]-3,3-dimethyl-1H,2H,3H-pyrrolo[3,2-b]pyridin-1-yl}ethan-1-one dihydrochloride] yielded a pEC50 [1, 9] of 7.52, a pEC50 [1, 7] greater than 6.00 and an inhibition at 0.04 µM [2] of 40%.

`C[C@@H]1CN(CC(=O)N2CC(C)(C)c3ncc(C(O)c4ccccc4F)cc32)[C@@H](CN2[C@H](C)COC[C@H]2C)CN1` (single isomer, unassigned) [Example 108, 2-[(2R,5R)-2-{[(3R,5R)-3,5-Dimethylmorpholin-4-yl]methyl}-5-methylpiperazin-1-yl]-1-{6-[(R or S)-(2-fluorophenyl)-(hydroxy)methyl]-3,3-dimethyl-1H,2H,3H-pyrrolo[3,2-b]pyridin-1-yl}ethan-1-one dihydrochloride] was tested, and the pEC50 [1, 4] was 8.57, the “Xiap IC50 or PI μM (PI)” value [2, 5] was 66%@0.04 and the “cIAP1 IC50 or PI μM (PI)” value ([3]; 180 min, dihydrochloride, […]) was 97%@0.012.

With `C[C@@H]1CN(CC(=O)N2CC(C)(C)c3ncc(C(O)c4cccc(F)c4F)cc32)[C@@H](CN2[C@H](C)COC[C@H]2C)CN1` (single isomer, unassigned) [Example 112, (R or S)-1-{6-[(2,3-Difluorophenyl)(hydroxy)meth-yl]-3,3-dimethyl-1H,2H,3H-pyrrolo[3,2-b]pyridin-1-yl}-2-[(2R,5R)-2-{[(3R,5R)-3,5-dimethylmorpholin-4-yl]methyl}-5-methylpiperazin-1-yl]ethan-1-one dihdrochloride] the pEC50 [1, 8] was 7.70, the “Xiap IC50 or PI μM (PI)” value ([2]; 60 min, 0.04 µM) was 47%@0.04 and the “cIAP1 IC50 or PI μM (PI)” value ([3]; 180 min, […]) was 90%@0.012.

Work on `C[C@@H]1CN(CC(=O)N2CC(C)(C)c3cnc(Cc4ccc(F)cc4)cc32)[C@@H](CN2CCOC[C@@]2(C)CO)CN1` [Example 62, 1-{6-[(4-Fluorophenyl)methyl]-3,3-dimethyl-1H,2H,3H-pyrrolo[3,2-c]pyridin-1-yl}-2-[(2R,5R)-2-{[(3R)-3-(hydroxymethyl)-3-methylmorpholin-4-yl]methyl}-5-methylpiperazin-1-yl]ethan-1-one, dihydrochloride] yielded a pEC50 [1, 9] of 8.96, a pEC50 [1, 7] greater than 6.00 and an inhibition at 0.04 µM [2] of 60%.

`CC(=O)N1CCN(C[C@H]2CN[C@H](C)CN2CC(=O)N2CC(C)(C)c3ncc(Cc4ccc(F)cc4)cc32)[C@H](C)C1` [Example 52, 2-[(2R,5R)-2-{[(2R)-4-Acetyl-2-methylpiperazin-1-yl]methyl}-5-methylpiperazin-1-yl]-1-{6-[(4-fluorophenyl)methyl]-3,3-dimethyl-1H,2H,3H-pyrrolo[3,2-b]pyridin-1-yl}ethan-1-one, dihydrochloride] was tested, and the pEC50 [1, 9] was 9.00, the pEC50 [1, 7] was greater than 6.00 and the inhibition at 0.04 µM [2] was 49%.

Molecule `C[C@@H]1CN(CC(=O)N2CC(C)(C)c3ncc(Cc4ccc(F)cc4)cc32)[C@@H](CN2CCNC(=O)C2)CN1` [Example 42, 4-{[(2R,5R)-1-(2-{6-[(4-Fluorophenyl)methyl]-3,3-dimethyl-1H,2H,3H-pyrrolo[3,2-b]pyridin-1-yl}-2-oxoethyl)-5-methylpiperazin-2-yl]methyl}piperazin-2-one dihydrochloride] has a pEC50 [1, 9] of 7.96, a pEC50 [1, 7] greater than 6.00 and an inhibition at 0.04 µM [2] of 44%.
